Among the data in patent EP0428423A2, “Aryloxy alkyl benzenes, processes for their preparation and pharmaceutical compositions containing them” (LIPHA S.A., priority 1989, dated 1991) are IC50 values, retold here.

pIC50: −log10 of the molar value. Bounds are passed on as bounds.

This assay concerns the target T1, COTRANSPORT Na-K (Homo sapiens, UniProt P55011).
T1 construct: systèmes de transport du sodium et du potassium des érythrocytes humains; endogenous in cells; host or cells: human erythrocytes
T1 sequence (P55011 1-1212): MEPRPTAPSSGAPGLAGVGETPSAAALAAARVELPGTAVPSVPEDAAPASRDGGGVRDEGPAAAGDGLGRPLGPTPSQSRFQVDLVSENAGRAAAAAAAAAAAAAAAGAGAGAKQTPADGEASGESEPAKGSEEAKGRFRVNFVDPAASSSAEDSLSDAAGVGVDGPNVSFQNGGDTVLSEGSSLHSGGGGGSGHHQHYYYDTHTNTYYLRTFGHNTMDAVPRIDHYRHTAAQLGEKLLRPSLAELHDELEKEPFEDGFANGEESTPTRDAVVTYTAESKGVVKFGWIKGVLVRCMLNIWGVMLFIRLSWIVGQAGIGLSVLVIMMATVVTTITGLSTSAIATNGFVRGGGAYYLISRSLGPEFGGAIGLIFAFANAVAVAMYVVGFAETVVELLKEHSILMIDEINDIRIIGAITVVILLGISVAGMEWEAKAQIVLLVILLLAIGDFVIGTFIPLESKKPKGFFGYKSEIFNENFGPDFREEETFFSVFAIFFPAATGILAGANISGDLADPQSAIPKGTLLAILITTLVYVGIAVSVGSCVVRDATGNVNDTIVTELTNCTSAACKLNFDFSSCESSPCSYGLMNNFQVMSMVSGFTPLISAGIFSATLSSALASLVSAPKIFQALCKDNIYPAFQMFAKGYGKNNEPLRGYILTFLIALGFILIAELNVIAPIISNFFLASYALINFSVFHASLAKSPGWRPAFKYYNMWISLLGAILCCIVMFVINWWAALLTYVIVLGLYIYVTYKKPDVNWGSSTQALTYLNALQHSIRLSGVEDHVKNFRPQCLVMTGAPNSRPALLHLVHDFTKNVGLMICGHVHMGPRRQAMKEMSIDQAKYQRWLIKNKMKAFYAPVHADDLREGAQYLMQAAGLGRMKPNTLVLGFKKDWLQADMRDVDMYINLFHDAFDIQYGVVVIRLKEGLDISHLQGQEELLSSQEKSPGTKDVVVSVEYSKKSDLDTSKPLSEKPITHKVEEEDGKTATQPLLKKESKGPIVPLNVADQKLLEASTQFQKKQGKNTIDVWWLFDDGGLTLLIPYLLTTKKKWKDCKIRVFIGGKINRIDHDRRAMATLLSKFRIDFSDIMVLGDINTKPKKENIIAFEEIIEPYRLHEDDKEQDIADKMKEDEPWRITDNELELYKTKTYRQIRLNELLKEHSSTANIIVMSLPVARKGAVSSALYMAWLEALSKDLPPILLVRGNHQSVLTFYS
The assay is described as follows: Na-K cotransport of human erythrocytes. As to conditions: human erythrocytes; read-out: EFFET SUR LE COTRANSPORT Na-K IC 50. It counts as cell-based, ERYTHROCYTES HUMAINS. The text has this:
Cet effet a été étudié selon la méthodologie décrite par G. GARAY et coll. dans Naunyn-Schmidberg's Arch. Pharmakol. […] Pharm.

Consider `Cc1ccc(O)c(CCOc2ccccc2)c1` [ex 36], for which the pIC50 is under 3.22.
